biological target: CDK2 (UniProt P24941); experiment: Enzyme Assay

Ki [nM] | SMILES
< 500 | N#CCC(=O)N1CCCN(c2cc(-n3cnc(Nc4ccccc4)n3)ccn2)CC1
> 1000 | CC(=O)N1[C@H](C)CN(c2cc(-n3cnc(Nc4ccccc4)n3)ncn2)C[C@@H]1C
> 1000 | c1ccc(-n2cnc(Nc3ccc(N4CCOCC4)nc3)n2)cc1
< 500 | CC(C)CCN(C)c1cc(-n2cnc(Nc3ccccc3)n2)ccn1
< 500 | COCCN(C)c1cc(-n2cnc(Nc3ccccc3)n2)ccn1
< 500 | CC(=O)N1[C@H](C)CN(c2cc(-n3cnc(Nc4ccc(NC(=O)C(F)(F)F)cc4)n3)ccn2)C[C@@H]1C
> 1000 | CC(=O)N1CCCN(c2cc(-n3cnc(Nc4ccccc4)n3)ncn2)CC1
500 to 1000 | CC(=O)N1[C@H](C)CN(c2cc(-n3cnc(Nc4ccc(NC(=O)OCC(C)(C)C)cc4)n3)ccn2)C[C@@H]1C
< 500 | c1ccc(Nc2ncn(-c3ccnc(N4CCCCCCC4)c3)n2)cc1
> 1000 | CN1CCN(c2ccc(Nc3ncn(-c4ccccc4)n3)cn2)CC1
> 1000 | COCC(=O)N1CCCN(c2cc(-n3cnc(Nc4ccccc4)n3)ccn2)CC1
> 1000 | COc1cc(Nc2ncn(-c3ccccc3)n2)cc(OC)c1OC
< 500 | COC(=O)Nc1ccc(Nc2ncn(-c3ccnc(N4C[C@@H](C)N(C(C)=O)[C@@H](C)C4)c3)n2)cc1
< 500 | CC(=O)N1[C@H](C)CN(c2cc(-n3cnc(Nc4ccc(N5CCOCC5)cc4)n3)ccn2)C[C@@H]1C
500 to 1000 | CCOC(=O)c1ccc(Nc2ncn(-c3ccnc(N4C[C@@H](C)N(C(C)=O)[C@@H](C)C4)c3)n2)cc1
> 1000 | O=C(CC1CCCC1)Nc1cc(-n2cnc(Nc3ccccc3)n2)ccn1
< 500 | CCN(CCO)c1cc(-n2cnc(Nc3ccccc3)n2)ccn1
> 1000 | CC(C)C(=O)N1CCCN(c2cc(-n3cnc(Nc4ccccc4)n3)ccn2)CC1
500 to 1000 | CC(=O)N1[C@H](C)CN(c2cc(-n3cnc(Nc4ccc(NC(=O)OC(C)C)cc4)n3)ccn2)C[C@@H]1C
> 1000 | c1ccc(-n2cnc(Nc3ccc4c(c3)OCCO4)n2)cc1
< 500 | CCCOC(=O)Nc1ccc(Nc2ncn(-c3ccnc(N4C[C@@H](C)N(C(C)=O)[C@@H](C)C4)c3)n2)cc1
< 500 | CN(Cc1ccccc1)c1cc(-n2cnc(Nc3ccccc3)n2)ccn1

Ki [nM] | SMILES
> 1000 | CC(C)Oc1cccc(Nc2ncn(-c3ccccc3)n2)c1
> 1000 | CCOc1ccc(Nc2ncn(-c3ccccc3)n2)cc1
> 1000 | CN(C)CCCN(C)c1cc(-n2cnc(Nc3ccccc3)n2)ccn1
< 500 | CC(=O)N1[C@H](C)CN(c2cc(-n3cnc(Nc4ccc(NC(=O)c5cccs5)cc4)n3)ccn2)C[C@@H]1C
< 500 | CC(=O)N1[C@H](C)CN(c2cc(-n3cnc(Nc4ccccc4)n3)ccn2)C[C@@H]1C
500 to 1000 | CC(=O)N1[C@H](C)CN(c2cc(-n3cnc(Nc4ccc(N5CCN(S(=O)(=O)c6ccc(C)cc6)CC5)cc4)n3)ccn2)C[C@@H]1C
< 500 | CC(=O)N1[C@H](C)CN(c2cc(-n3cnc(Nc4ccc(NC(=O)NC(C)C)cc4)n3)ccn2)C[C@@H]1C
< 500 | CCCN(CCO)c1cc(-n2cnc(Nc3ccccc3)n2)ccn1
500 to 1000 | CC(=O)N1[C@H](C)CN(c2cc(-n3cnc(Nc4ccc(NC(=O)NC(C)(C)C)cc4)n3)ccn2)C[C@@H]1C
> 1000 | c1ccc(-n2cnc(Nc3ccnc(NCCN4CCOCC4)c3)n2)cc1
< 500 | O=C(Cc1ccccc1)Nc1cc(-n2cnc(Nc3ccccc3)n2)ccn1
< 500 | CC(=O)N1[C@H](C)CN(c2cc(-n3cnc(Nc4ccc(N5CCN(C(=O)OC(C)(C)C)CC5)cc4)n3)ccn2)C[C@@H]1C
< 500 | CCCNC(=O)Nc1ccc(Nc2ncn(-c3ccnc(N4C[C@@H](C)N(C(C)=O)[C@@H](C)C4)c3)n2)cc1
> 1000 | CC(C)(C)CC(=O)Nc1cc(-n2cnc(Nc3ccccc3)n2)ccn1
> 1000 | CC(=O)N1[C@H](C)CN(c2cc(-n3cnc(Nc4ccc(NC(=O)N(C)C)cc4)n3)ccn2)C[C@@H]1C
500 to 1000 | COc1cc(Nc2ncn(-c3ccc(C#N)cc3)n2)cc(OC)c1OC
< 500 | CC(=O)N1[C@H](C)CN(c2cc(-n3cnc(Nc4ccc(N)cc4)n3)ccn2)C[C@@H]1C
> 1000 | C[C@@H]1CN(c2cc(-n3cnc(Nc4ccccc4)n3)ncn2)C[C@H](C)N1
< 500 | CN(Cc1cccnc1)c1cc(-n2cnc(Nc3ccccc3)n2)ccn1
< 500 | c1ccc(Nc2ncn(-c3ccnc(N4CCCCCC4)c3)n2)cc1
< 500 | OC[C@H]1CCCN(c2cc(-n3cnc(Nc4ccccc4)n3)ccn2)C1
> 1000 | CCC(=O)N1CCCN(c2cc(-n3cnc(Nc4ccccc4)n3)ccn2)CC1

Ki [nM] | SMILES
500 to 1000 | O=C(Nc1cc(-n2cnc(Nc3ccccc3)n2)ccn1)C1CCCCC1
< 500 | c1ccc(Nc2ncn(-c3ccnc(NC4CCCCC4)c3)n2)cc1
> 1000 | O=C(C1CCCO1)N1CCN(c2cc(-n3cnc(Nc4ccccc4)n3)ccn2)CC1 (stereo not given)
> 1000 | CCCC(=O)N1CCCN(c2cc(-n3cnc(Nc4ccccc4)n3)ccn2)CC1
500 to 1000 | O=C(CCc1ccccc1)Nc1cc(-n2cnc(Nc3ccccc3)n2)ccn1
500 to 1000 | CC(=O)N1[C@H](C)CN(c2cc(-n3cnc(Nc4ccc(NC(=O)OCC(C)C)cc4)n3)ccn2)C[C@@H]1C
< 500 | CCNC(=O)Nc1ccc(Nc2ncn(-c3ccnc(N4C[C@@H](C)N(C(C)=O)[C@@H](C)C4)c3)n2)cc1
> 1000 | CCOc1cccc(Nc2ncn(-c3ccccc3)n2)c1
500 to 1000 | c1ccc(-n2cnc(Nc3ccnc(N4CCOCC4)c3)n2)cc1
500 to 1000 | CC(=O)N1CCCN(c2cc(-n3cnc(Nc4ccccc4)n3)ccn2)CC1
< 500 | CN(CCO)c1cc(-n2cnc(Nc3ccccc3)n2)ccn1
> 1000 | CC(C)CC(=O)N1CCCN(c2cc(-n3cnc(Nc4ccccc4)n3)ccn2)CC1
> 1000 | CCOC(=O)c1ccc(Nc2ncn(-c3ccnc(N4CCCN(C(C)=O)CC4)c3)n2)cc1
500 to 1000 | CC(=O)N1[C@H](C)CN(c2cc(-n3cnc(Nc4ccc(NC(=O)c5ccco5)cc4)n3)ccn2)C[C@@H]1C
< 500 | CCOC(=O)Nc1ccc(Nc2ncn(-c3ccnc(N4C[C@@H](C)N(C(C)=O)[C@@H](C)C4)c3)n2)cc1
< 500 | c1ccc(Nc2ncn(-c3ccnc(N4CCCCC4)c3)n2)cc1
< 500 | CC1CCCN1c1cc(-n2cnc(Nc3ccccc3)n2)ccn1 (stereo not given)
> 1000 | CCN(CC)CCNc1cc(-n2cnc(Nc3ccccc3)n2)ccn1
500 to 1000 | CN1C(C)(C)CC(Nc2cc(-n3cnc(Nc4ccccc4)n3)ccn2)CC1(C)C
> 1000 | O=c1[nH]c2ccccc2n1C1CCN(c2cc(-n3cnc(Nc4ccccc4)n3)ccn2)CC1
> 1000 | c1ccc(-n2cnc(Nc3ccc(N4CCOCC4)cc3)n2)cc1

From the Kinase Knowledgebase extract (Sharma et al. 2016)
